Laboratory results taken from ChEMBL document CHEMBL5608185, “Design, synthesis and evaluation of carbamate-bridged amino acid prodrugs of cycloicaritin with improved antitumor activity, aqueous solubility and phase II metabolic stability” (Eur J Med Chem, 2024).
Values after ≈ are worked out from the molar mass of the structure shown.

Legend:
[1] = Stability in Sprague-Dawley rat blood homogenates assessed as half life at pH 7.4 by HPLC analysis; type: ADME, tissue-based
[2] = Drug uptake in human Caco-2 cells over 1 to 100 uM incubated for 10 mins by HPLC-MS/MS analysis; type: ADME, cell-based; conditions: caco-2, 10 min, dose 1-100 µM
[3] = Chemical stability of the compound in simulated intestinal fluid assessed as half life by HPLC analysis; type: ADME, physicochemical
[4] = Stability at phase II in rat liver microsomes assessed as half life at 10 uM measured every 10 mins for 70 mins by HPLC-UV analysis; type: ADME, Microsome
[5] = Octanol/water partition coefficient, logP of the compound incubated for 72 hrs by HPLC-MS/MS analysis; type: physicochemical
[6] = Aqueous solubility of the compound incubated for 72 hrs by shake-flask method; type: physicochemical; conditions: buffer
[7] = Chemical stability of the compound assessed as half life at pH 4.5 by HPLC analysis; type: physicochemical; conditions: buffer
[8] = Stability in rat liver microsomes assessed as parent compound remaining at 10 uM measured after 70 mins by HPLC-UV analysis; type: ADME, Microsome; conditions: read-out: Stability
[9] = Stability in Sprague-Dawley rat liver homogenates assessed as half life at pH 7.4 by HPLC analysis; type: ADME, tissue-based
[10] = Chemical stability of the compound assessed as half life at pH 1.2 by HPLC analysis; type: physicochemical; conditions: buffer
[11] = Drug uptake in human Caco-2 cells at 5 uM at pH 7.4 incubated for 10 mins by HPLC-MS/MS analysis; type: ADME, cell-based; conditions: caco-2, pH 7.4, 10 min
[12] = Chemical stability of the compound assessed as half life at pH 7.4 by HPLC analysis; type: physicochemical; conditions: buffer
[13] = Chemical stability of the compound assessed as half life at pH 6.8 by HPLC analysis; type: physicochemical; conditions: buffer
[14] = Drug uptake in human Caco-2 cells at 5 uM incubated for 10 mins in presence of Estrone-3-sulfate by HPLC-MS/MS analysis; type: ADME, cell-based; conditions: caco-2, 10 min
[15] = Drug uptake in human Caco-2 cells at 5 uM incubated for 10 mins in presence of fexofenadine by HPLC-MS/MS analysis; type: ADME, cell-based; conditions: caco-2, 10 min
[16] = Chemical stability of the compound in simulated gastric fluid assessed as half life by HPLC analysis; type: ADME, physicochemical
[17] = Stability in Sprague-Dawley rat intestine homogenates assessed as half life at pH 7.4 by HPLC analysis; type: ADME, tissue-based
[18] = Oral bioavailability in rat; type: ADME, organism-based; conditions: in vivo

Row | half-life [1] | Drug uptake [2] | half-life [3] | half-life at 10 µM [4] | logP at 72 h [5] | solubility thermodynamic at 72 h [6] | half-life [7] | remaining at 1.167 h, 10 µM [8] | half-life [9] | half-life [10] | Drug uptake [11] | half-life [12] | half-life [13] | Drug uptake [14] | Drug uptake [15] | half-life [16] | half-life [17] | bioavailability [18] | Structure (SMILES)
1 | 0.47 h | Not Active | > 12 h | > 1.16 h | 2.75 | 5.69 µM (≈ 2.91 µg/mL) | > 12 h | 76% | 7.99 h | > 12 h | Not Active | 8.17 h | > 12 h | Not Active | Not Active | > 12 h | 7.22 h |  | COc1ccc(-c2oc3c4c(cc(O)c3c(=O)c2OC(=O)N[C@H](C(=O)O)C(C)C)OC(C)(C)CC4)cc1
2 |  |  |  |  |  | 1.1 µM (≈ 0.596 µg/mL) |  |  |  |  |  |  |  |  |  |  |  |  | COc1ccc(-c2oc3c4c(cc(O)c3c(=O)c2OC(=O)N[C@@H](CCC(=O)O)C(=O)O)OC(C)(C)CC4)cc1
3 | 0.25 h | Not Active | 5.24 h | > 1.16 h | 3.66 | 3.64 µM (≈ 1.71 µg/mL) | > 12 h | 76% | 1.96 h | > 12 h |  | 1.96 h | 5.21 h |  |  | > 12 h | 1.89 h |  | COc1ccc(-c2oc3c4c(cc(O)c3c(=O)c2OC(=O)NCC(=O)O)OC(C)(C)CC4)cc1
4 |  |  |  |  |  |  |  |  |  |  |  |  |  |  |  |  |  | 4.3% | COc1ccc(-c2oc3c(CC=C(C)C)c(O)cc(O)c3c(=O)c2O)cc1 [ICARITIN]
